Entries after “also recorded” stand apart in the source; their conditions may differ. Square brackets hold non-standard residues; d marks the D form. Peptide text beside a SMILES is read from it. Ahx = NCCCCCC(=O)O
Test system: FMDV 3A protein homodimerization in BHK-21 cells
Format: cell-based, foot-and-mouth disease virus (FMDV)

| Compound | 3A dimerization (PLA fluorescent dots relative to cells incubated with no peptide) |
| --- | --- |
| RRRRRRRXFFEGMVHDS [Peptide R7-α1] | decreasing trend; also recorded: higher inhibitions |
| CC[C@H](C)[C@H](NC(=O)[C@H](CC(C)C)NC(=O)[C@@H]1CCCN1C(=O)[C@H](CCCNC(=N)N)NC(=O)[C@H](CC(C)C)NC(=O)[C@H](CCC(=O)O)NC(=O)CCCCCNC(=O)[C@H](CCCNC(=N)N)NC(=O)[C@H](CCCNC(=N)N)NC(=O)[C@H](CCCNC(=N)N)NC(=O)[C@H](CCCNC(=N)N)NC(=O)[C@H](CCCNC(=N)N)NC(=O)[C@H](CCCNC(=N)N)NC(=O)[C@@H](N)CCCNC(=N)N)C(=O)N[C@@H](CCC(N)=O)C(=O)N[C@@H](CCC(N)=O)C(N)=O [Peptide R7-α2] (H-RRRRRRR[Ahx]ELRPLIQQ-NH2; N-terminus assumed) | lack of effect |

Source: article PMC4624780 (PLoS ONE, 2015)
